# Measurements from US20250163047A1, “HETEROCYCLIC COMPOUNDS, COMPOSITIONS THEREOF, AND METHODS OF TREATMENT THEREWITH” (BeiGene, Ltd., priority 2022, published 2025).
# What was measured:
# Cbl-b (aa36-427) = molecular target: T1, Cbl-b (aa36-427) (Homo sapiens, UniProt Q13191); assay: Co-expressed Cbl-b with BirA biochemical assay (CBLB/E2-Ub binding, HTRF); conditions: 0.6 nM Cbl-b co-expressed with BirA, HTRF; read-out: co-express CBLB/E2-Ub-binding assay IC50
# T1 construct: Cbl-b (aa36-427, in-house); made in house
# Text: (§1) The assay in the absence of a Cbl-b/Cbl inhibitor, where phosphorylation of Cbl-b/Cbl by the Src kinase allows UbcH5B-Ub to bind to Cbl-b/Cbl and brings the Bodipy-Fluorescein tagged ubiquitin in proximity to the streptavidin-terbium bound to the N-terminal biotinylated Avi-tagged Cbl-b/Cbl. […] The lack of a FRET signal indicates Cbl-b/Cbl is inhibited by the Cbl-b/Cbl inhibitor.
# Cbl (aa49-434) = molecular target: T2, Cbl (aa49-434) (Homo sapiens, UniProt P22681); assay: Co-expressed Cbl with BirA biochemical assay (CBL/E2-Ub binding, HTRF); conditions: 0.6 nM Cbl co-expressed with BirA, read-out: co-express CBL/E2-Ub-binding assay IC50
# T2 construct: Cbl (aa49-434, in-house); made in house
# T2 sequence (P22681 49-434): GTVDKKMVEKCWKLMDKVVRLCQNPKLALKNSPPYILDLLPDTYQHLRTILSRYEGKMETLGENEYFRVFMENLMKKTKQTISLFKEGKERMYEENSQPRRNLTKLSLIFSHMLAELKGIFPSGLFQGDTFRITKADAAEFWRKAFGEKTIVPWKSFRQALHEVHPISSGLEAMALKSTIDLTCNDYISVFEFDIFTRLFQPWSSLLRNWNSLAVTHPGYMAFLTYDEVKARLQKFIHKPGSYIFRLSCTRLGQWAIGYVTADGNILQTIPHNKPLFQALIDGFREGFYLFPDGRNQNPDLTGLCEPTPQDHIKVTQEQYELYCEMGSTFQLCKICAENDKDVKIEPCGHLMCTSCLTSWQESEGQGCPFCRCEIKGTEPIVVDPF
# Text: as §1
# T1 sequence (Q13191 36-427): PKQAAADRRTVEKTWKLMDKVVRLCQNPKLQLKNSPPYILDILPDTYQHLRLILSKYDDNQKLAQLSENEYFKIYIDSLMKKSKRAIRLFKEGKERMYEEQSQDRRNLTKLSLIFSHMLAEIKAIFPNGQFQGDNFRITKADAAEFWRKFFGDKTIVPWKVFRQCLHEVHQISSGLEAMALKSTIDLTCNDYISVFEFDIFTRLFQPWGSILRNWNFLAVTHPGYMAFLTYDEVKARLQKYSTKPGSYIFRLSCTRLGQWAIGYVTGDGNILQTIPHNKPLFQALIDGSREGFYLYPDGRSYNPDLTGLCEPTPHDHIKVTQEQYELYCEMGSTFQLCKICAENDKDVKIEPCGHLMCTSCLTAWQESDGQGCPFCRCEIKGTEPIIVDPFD
SMILES,IC50 (Cbl-b (aa36-427)) [nM],IC50 (Cbl (aa49-434)) [nM]
"C[C@H](NCc1cc(C(=O)Nc2cccc([C@]3(c4nncn4C)C[C@@H](CC#N)C3)c2)nc2cc[nH]c12)C1CCC1 [Compound B31, N-(3-((1s,3R)-3-(cyanomethyl)-1-(4-methyl-4H-1,2,4-triazol-3-yl)cyclobutyl)phenyl)-7-((((S)-1-cyclobutylethyl)amino)methyl)-1H-pyrrolo[3,2-b]pyridine-5-carboxamide]",0.8,0.7
"Cn1cnnc1[C@]1(c2cccc(NC(=O)c3cc(CNCC4CCC4)c4[nH]ccc4n3)c2)C[C@H](C)C1 [Compound B32, 7-(((cyclobutylmethyl)amino)methyl)-N-(3-((1s, 3s)-3-methyl-1-(4-methyl-4H-1,2,4-triazol-3-yl)cyclobutyl)phenyl)-1H-pyrrolo[3,2-b]pyridine-5-carboxamide]",1,1.5
"Cn1cnnc1[C@]1(c2cccc(NC(=O)c3cc(CN[C@H]4C[C@@H](C)C4)c4[nH]ccc4n3)c2)C[C@H](C)C1 [Compound B33, N-(3-((1s, 3s)-3-methyl-1-(4-methyl-4H-1,2,4-triazol-3-yl)cyclobutyl)phenyl)-7-((((1s, 3s)-3-methylcyclobutyl)amino)methyl)-1H-pyrrolo[3,2-b]pyridine-5-carboxamide]",0.9,4.7
"Cc1c[nH]c2c(CN3CC[C@H](F)[C@H](C)C3)cc(C(=O)Nc3cccc([C@]4(c5nncn5C)C[C@@H](C)C4)c3)nc12 [Compound B34, 7-(((3R,4S)-4-fluoro-3-methylpiperidin-1-yl)methyl)-3-methyl-N-(3-((1s,3S)-3-methyl-1-(4-methyl-4H-1,2,4-triazol-3-yl)cyclobutyl)phenyl)-1H-pyrrolo[3,2-b]pyridine-5-carboxamide]",1.6,5.5
"C[C@H](NCc1cc(C(=O)Nc2cccc([C@]3(c4nncn4C)C[C@@H](C)C3)c2)nc2cc[nH]c12)C1CCC1 [Compound B35, 7-((((S)-1-cyclobutylethyl)amino)methyl)-N-(3-((1s,3R)-3-methyl-1-(4-methyl-4H-1,2,4-triazol-3-yl)cyclobutyl)phenyl)-1H-pyrrolo[3,2-b]pyridine-5-carboxamide]",0.7,1.1
"Cn1cnnc1[C@]1(c2cccc(NC(=O)c3cc(CNCC4CCC4)c4[nH]cc(F)c4n3)c2)C[C@H](C)C1 [Compound B36, 7-(((cyclobutylmethyl)amino)methyl)-3-fluoro-N-(3-((1s, 3s)-3-methyl-1-(4-methyl-4H-1,2,4-triazol-3-yl)cyclobutyl)phenyl)-1H-pyrrolo[3,2-b]pyridine-5-carboxamide]",0.8,2.3
"C[C@H](NCc1cc(C(=O)Nc2cccc([C@]3(c4nncn4C)C[C@@H](C)C3)c2)nc2c(F)c[nH]c12)C1CC1 [Compound B37, 7-((((S)-1-cyclopropylethyl)amino)methyl)-3-fluoro-N-(3-((1s,3R)-3-methyl-1-(4-methyl-4H-1,2,4-triazol-3-yl)cyclobutyl)phenyl)-1H-pyrrolo[3,2-b]pyridine-5-carboxamide]",0.8,4.5
"C[C@H](NCc1cc(C(=O)Nc2cccc([C@]3(c4nncn4C)C[C@@H](C)C3)c2)nc2c(F)c[nH]c12)C1CCC1 [Compound B38, 7-((((S)-1-cyclobutylethyl)amino)methyl)-3-fluoro-N-(3-((1s,3R)-3-methyl-1-(4-methyl-4H-1,2,4-triazol-3-yl)cyclobutyl)phenyl)-1H-pyrrolo[3,2-b]pyridine-5-carboxamide]",0.5,1.3
"Cn1cnnc1[C@]1(c2cccc(NC(=O)c3cc(CNC4(C)CCC4)c4ccsc4n3)c2)C[C@H](CC#N)C1 [Compound B39, 4-{[(1-methylcyclobutyl)amino]methyl}-N-{3-[(1s, 3s)-3-(cyanomethyl)-1-(4-methyl-1,2,4-triazol-3-yl)cyclobutyl]phenyl}thieno[2,3-b]pyridine-6-carboxamide]",0.8,8.8
"Cn1cnnc1[C@]1(c2cncc(NC(=O)c3cc(CNCC4CCC4)c4[nH]ccc4n3)c2)C[C@H](C)C1 [Compound B40, 7-{[(cyclobutylmethyl)amino]methyl}-N-{5-[(1r, 3s)-3-methyl-1-(4-methyl-1,2,4-triazol-3-yl)cyclobutyl]pyridin-3-yl}-1H-pyrrolo[3,2-b]pyridine-5-carboxamide]",1,2.1
"Cn1cnnc1[C@]1(c2cccc(NC(=O)c3cc(CNCC4CCC4)c4ccsc4n3)c2)C[C@H](C)C1 [Compound B41, 4-{[(cyclobutylmethyl)amino]methyl}-N-{3-[(1r, 3s)-3-methyl-1-(4-methyl-1,2,4-triazol-3-yl)cyclobutyl]phenyl}thieno[2,3-b]pyridine-6-carboxamide]",0.8,2.3
"C[C@H](NCc1cc(C(=O)Nc2cncc([C@]3(c4nncn4C)C[C@@H](C)C3)c2)nc2sccc12)C1CCC1 [Compound B42, 4-({[(1S)-1-cyclobutylethyl]amino}methyl)-N-{5-[(1r, 3s)-3-methyl-1-(4-methyl-1,2,4-triazol-3-yl)cyclobutyl]pyridin-3-yl}thieno[2,3-b]pyridine-6-carboxamide]",2.1,4.7
"C[C@H](NCc1cc(C(=O)Nc2cncc([C@]3(c4nncn4C)C[C@@H](C)C3)c2)nc2cc[nH]c12)C1CCC1 [Compound B43, 7-({[(1S)-1-cyclobutylethyl]amino}methyl)-N-{5-[(1r, 3s)-3-methyl-1-(4-methyl-1,2,4-triazol-3-yl)cyclobutyl]pyridin-3-yl}-1H-pyrrolo[3,2-b]pyridine-5-carboxamide]",0.6,0.6
"Cn1cnnc1[C@]1(c2cncc(NC(=O)c3cc(CNC4(C)CC4)c4[nH]ccc4n3)c2)C[C@H](C)C1 [Compound B44, N-(5-((1s, 3s)-3-methyl-1-(4-methyl-4H-1,2,4-triazol-3-yl)cyclobutyl)pyridin-3-yl)-7-(((1-methylcyclopropyl)amino)methyl)-1H-pyrrolo[3,2-b]pyridine-5-carboxamide]",1.9,9
"Cn1ccc2c(CNCC3CCC3)cc(C(=O)Nc3cccc([C@]4(c5nncn5C)C[C@@H](C)C4)c3)nc21 [Compound B45, 4-(((cyclobutylmethyl)amino)methyl)-1-methyl-N-(3-((1s, 3s)-3-methyl-1-(4-methyl-4H-1,2,4-triazol-3-yl)cyclobutyl)phenyl)-1H-pyrrolo[2,3-b]pyridine-6-carboxamide]",1.7,16.5
"Cn1cnnc1[C@]1(c2cncc(NC(=O)c3cc(CNCC4CCC4)c4[nH]cc(F)c4n3)c2)C[C@H](C)C1 [Compound B46, 7-{[(cyclobutylmethyl)amino]methyl}-3-fluoro-N-{5-[(1r, 3s)-3-methyl-1-(4-methyl-1,2,4-triazol-3-yl)cyclobutyl]pyridin-3-yl}-1H-pyrrolo[3,2-b]pyridine-5-carboxamide]",0.7,2.7
"CC[C@H](C)NCc1cc(C(=O)Nc2cncc([C@]3(c4nncn4C)C[C@@H](C)C3)c2)nc2cc[nH]c12 [Compound B47, 7-((((S)-sec-butyl)amino)methyl)-N-(5-((1s,3R)-3-methyl-1-(4-methyl-4H-1,2,4-triazol-3-yl)cyclobutyl)pyridin-3-yl)-1H-pyrrolo[3,2-b]pyridine-5-carboxamide]",2.2,6.1
"CC(C)CNCc1cc(C(=O)Nc2cncc([C@]3(c4nncn4C)C[C@@H](C)C3)c2)nc2c(F)c[nH]c12 [Compound B48, 3-fluoro-7-((isobutylamino)methyl)-N-(5-((1s, 3s)-3-methyl-1-(4-methyl-4H-1,2,4-triazol-3-yl)cyclobutyl)pyridin-3-yl)-1H-pyrrolo[3,2-b]pyridine-5-carboxamide]",0.89,3.2
"Cn1cnnc1[C@]1(c2cncc(NC(=O)c3cc(CNC4(C)CCC4)c4[nH]cc(F)c4n3)c2)C[C@H](C)C1 [Compound B49, 3-fluoro-N-(5-((1s, 3s)-3-methyl-1-(4-methyl-4H-1,2,4-triazol-3-yl)cyclobutyl)pyridin-3-yl)-7-(((1-methylcyclobutyl)amino)methyl)-1H-pyrrolo[3,2-b]pyridine-5-carboxamide]",3.2,14
"Cn1cnnc1[C@]1(c2cncc(NC(=O)c3cc(CNC4(C)CCC4)c4[nH]ccc4n3)c2)C[C@H](C)C1 [Compound B50, N-(5-((1s, 3s)-3-methyl-1-(4-methyl-4H-1,2,4-triazol-3-yl)cyclobutyl)pyridin-3-yl)-7-(((1-methylcyclobutyl)amino)methyl)-1H-pyrrolo[3,2-b]pyridine-5-carboxamide]",1.5,9.3
"Cn1cnnc1[C@]1(c2cncc(NC(=O)c3cc(CNC4(C)CC4)c4ccsc4n3)c2)C[C@H](C)C1 [Compound B51, N-(5-((1s, 3s)-3-methyl-1-(4-methyl-4H-1,2,4-triazol-3-yl)cyclobutyl)pyridin-3-yl)-4-(((1-methylcyclopropyl)amino)methyl)thieno[2,3-b]pyridine-6-carboxamide]",1.4,13
